Measurements as given in PMC4055595, “Pharmacokinetic Compatibility of Ginsenosides and Schisandra Lignans in Shengmai-san: From the Perspective of P-Glycoprotein” (PLoS ONE, 2014).
Where two headings read alike, the source gives them in different places.

Columns and labels:
[1] = system: LLC-PK1 cells (lacking P-gp); assay: Transport of digoxin and ginsenosides across LLC-PK1 cell monolayers; type: in vitro ADME; conditions: for Effect of verapamil on transport (efflux ratio): 10 µM verapamil; for Effect of SLE on transport (AP→BL, BL→AP): SLE 2.0 and 10.0 µg/mL
Protocol: (§1) LLC-PK1 cells, a cell line lacking P-gp, and the derived cell line L-MDR1, which over-express human MDR1-encoded P-gp, were grown in minimum essential medium with supplements at 37°C, 5% CO2, and 95% humidity. LLC-PK1 and L-MDR1 cells were seeded at a density of 12×10^6 cells per 150-cm^2 flask and grown for 7 days in medium 199 supplemented with 2 mM glutamine, 10% fetal bovine serum, 10 mg/500 mL of streptomycin, and 10,000 IU/500 mL of penicillin. To ensure a constant expression level of transport protein, L-MDR1 cells were grown in the presence of 640 nM vincristine. Cells were grown as monolayer on polycarbonate membrane filters (Transwell; Costar Corporation, Cambridge, MA) as outlined previously. Transepithelial resistance was measured in each well using a Millicell ERS ohmmeter (Millipore, Bedford, MA); wells registering a resistance of 200 ohms or greater, after correcting for the resistance obtained in control blank wells, were used in the transport experiments.
(§2) The LLC-PK1 and L-MDR1 cells were washed with warm Hank's balanced salt solution HBSS (pH 7.4) twice before transport experiment. HBSS containing verapamil (10 µM), SLE (2.0 and 10.0 µg/mL) or blank HBSS (control) was then loaded into both apical and basolateral chambers. After incubation at 37°C for 1.5 h, GE (100 µg/mL) was added to either the apical or basolateral side to evaluate the transport in absorptive and secretive directions, respectively. The cell monolayer was then incubated for another 2 h. Finally, the concentrations of ginsenosides were determined by LC/MS. All experiments were conducted in triplicate.
(§3) For the transport assay, the apparent permeability (P app, cm/s) in each direction (A→B and B→A) was calculated as follows, where A is the surface area of the membrane inserts (0.0804 cm^2), C 0 is the initial concentration of the compound applied in the donor compartment (2 µM), and △Q is the amount (micromoles) of compound transported over time △t (5 h = 18,000 s): [drawing 1]
(§4) The efflux ratio (ER) was a dimensionless number calculated as the ratio of the apparent permeability in the B→A direction divided by the apparent permeability in the A→B direction. [drawing 2]

[2] = target: T1, human MDR1-encoded P-gp (L-MDR1 cells) (Homo sapiens, UniProt P08183); assay: Transport of digoxin and ginsenosides across L-MDR1 cell monolayers (efflux ratio); type: in vitro ADME; conditions: for Effect of verapamil on efflux ratio / Papp / Effect of SLE on efflux ratio / transport: L-MDR1 cells; for Effect of verapamil on efflux ratio / Papp: 10 µM verapamil; for Effect of SLE on efflux ratio / transport: SLE 2.0 and 10.0 µg/mL; for P-gp substrate classification: summary of transport/uptake in LLC-PK1, L-MDR1 and Caco-2 cells with verapamil
T1 sequence (P08183 whole entry): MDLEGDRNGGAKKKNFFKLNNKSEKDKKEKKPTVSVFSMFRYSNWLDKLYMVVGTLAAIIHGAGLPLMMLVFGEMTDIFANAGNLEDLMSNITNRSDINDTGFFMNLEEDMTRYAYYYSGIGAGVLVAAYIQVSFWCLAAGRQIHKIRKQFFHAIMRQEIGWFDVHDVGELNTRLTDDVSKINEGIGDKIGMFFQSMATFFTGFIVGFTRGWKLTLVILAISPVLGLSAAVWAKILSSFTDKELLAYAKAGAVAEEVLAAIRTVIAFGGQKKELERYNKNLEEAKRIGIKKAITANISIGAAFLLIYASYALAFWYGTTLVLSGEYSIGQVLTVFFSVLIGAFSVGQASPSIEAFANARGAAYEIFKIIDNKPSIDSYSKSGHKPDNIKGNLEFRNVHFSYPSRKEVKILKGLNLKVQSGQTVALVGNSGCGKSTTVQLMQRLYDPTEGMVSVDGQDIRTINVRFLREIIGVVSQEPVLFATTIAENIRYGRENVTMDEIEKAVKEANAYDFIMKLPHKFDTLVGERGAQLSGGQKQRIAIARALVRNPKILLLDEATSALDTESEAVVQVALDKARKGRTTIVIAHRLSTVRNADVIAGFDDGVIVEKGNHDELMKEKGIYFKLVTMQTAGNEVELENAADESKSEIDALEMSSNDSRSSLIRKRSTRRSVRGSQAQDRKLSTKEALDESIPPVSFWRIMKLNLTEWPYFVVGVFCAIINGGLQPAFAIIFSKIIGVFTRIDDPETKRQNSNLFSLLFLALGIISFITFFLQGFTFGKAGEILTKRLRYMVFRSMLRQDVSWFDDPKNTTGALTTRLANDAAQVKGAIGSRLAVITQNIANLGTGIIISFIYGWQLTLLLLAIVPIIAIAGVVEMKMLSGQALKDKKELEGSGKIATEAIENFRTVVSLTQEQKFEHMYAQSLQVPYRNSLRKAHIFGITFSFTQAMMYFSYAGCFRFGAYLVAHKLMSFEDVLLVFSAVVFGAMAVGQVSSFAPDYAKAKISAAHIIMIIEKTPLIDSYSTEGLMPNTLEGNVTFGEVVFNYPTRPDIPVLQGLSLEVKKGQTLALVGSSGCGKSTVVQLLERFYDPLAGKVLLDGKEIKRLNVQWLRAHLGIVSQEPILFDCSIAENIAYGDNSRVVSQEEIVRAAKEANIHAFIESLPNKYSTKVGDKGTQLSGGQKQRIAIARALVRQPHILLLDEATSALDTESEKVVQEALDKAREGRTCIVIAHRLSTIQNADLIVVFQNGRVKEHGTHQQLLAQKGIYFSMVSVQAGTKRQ
Protocol: as §1, §2, §3, §4

P-gp (MDR1) = P-gp (MDR1) (Homo sapiens, UniProt P08183); assay: as above; type: in vitro ADME; conditions: human, read-out: Efflux ratio (Papp BL-AP / Papp AP-BL)
Chain of P-gp (MDR1) (P08183 whole entry): as above
Protocol: as §1, §2, §3, §4

[3] = system: LLC-PK1 cells (lacking P-gp); assay: Uptake (intracellular accumulation) of digoxin and ginsenosides in LLC-PK1 cells; type: in vitro ADME; conditions: for Effect of verapamil on intracellular accumulation: 10 µM verapamil; for Effect of SLE on intracellular accumulation: SLE 2.0 and 10.0 µg/mL
Protocol: as §1
(§5) LLC-PK1 and L-MDR1 cells were incubated with SLE (2.0 and 10.0 µg/mL) or verapamil (10 µM) for 1.0 h, and then were washed to discard SLE or verapamil before adding 100 µg/mL of GE. The accumulation of GE lasted for 2 h, and the intracellular concentrations of ginsenosides were measured by LC/MS. All experiments were conducted in triplicate.

[4] = target: T1, human MDR1-encoded P-gp (L-MDR1 cells); assay: Uptake (intracellular concentration) of digoxin and ginsenosides in L-MDR1 cells; type: in vitro ADME
Protocol: as §1, §5

[5] = Transport of digoxin and ginsenosides across Caco-2 cell monolayer (efflux ratio); type: in vitro ADME, human; conditions: human, Caco-2, pH 7.4
Protocol: (§6) Caco-2 cells were purchased from American Type Culture Collection (Manassas, VA), and were routinely cultured in Dulbecco's modified Eagle's medium supplemented with 10% fetal bovine serum, 1% nonessential amino acids, 1 mM sodium pyruvate, and 100 U/mL penicillin and streptomycin (Invitrogen, Carlsbad, CA). The cells were grown in an atmosphere of 5% CO2 at 37°C, and cell medium was changed every other day. Cells were seeded at a density of 4×10^4 cells per well in 24-well microporous polycarbonate insert filter plates (0.4-µm pore size) (Corning Costar plates; Corning Life Sciences, Lowell, MA) and grown for 15 days in Caco-2 growth medium. The medium was replaced every 3 to 4 days. Before running the assay, the culture medium was replaced by HBSS buffer supplemented with 10 mM Hepes and 20 mM glucose.
(§7) Caco-2 cells with a density of 1.2×10^5 cells/insert were seeded on a permeable polycarbonate insert (Millicell cell culture inserts, 0.4 µm pore size, 12 mm diameter; Millipore Corporation) in 24-well tissue culture plates and were used for the experiment 18 to 21 days after seeding. [^14C]Mannitol permeability and transepithelial electrical resistance measurements (Millicell-ERS epithelial volt-ohm meter; Millipore Corporation) were used to evaluate the integrity of Caco-2 cell monolayer. The monolayer used in transport studies had transepithelial electrical resistance values exceeding 600 Ω·cm^2, and the leakage of mannitol was less than 0.3% of the dose/h. Before transport initiation studies, the cell monolayer was first washed with warm HBSS (pH 7.4) twice. HBSS containing SLE (2.0 and 10.0 µg/mL) or 1% ethanol (control) was then loaded into both apical and basolateral chambers. After incubation at 37°C for 1.5 h, 100 µg/mL of GE was added to either the apical or basolateral side to evaluate the transport in absorptive and secretory directions, and the cell monolayer was incubated for another 2 h. 10 µM verapamil was used as a positive control inhibitor. At the designated time point, samples were taken from the receiving chamber for analysis. Ginsenosides were determined by LC-MS. All experiments were conducted in triplicate.
as §3, §4

Caco-2 cell monolayer = assay: as above; type: in vitro ADME, human
Protocol: as §6, §7, §3, §4

Caco-2 cells = assay: Uptake of digoxin and ginsenosides in Caco-2 cells; type: in vitro ADME, human
Protocol: as §6
Caco-2 cells were incubated with SLE (2.0 and 10.0 µg/mL) or verapamil (10 µM) for 1.0 h. Then the cells were washed with Hank's to discard SLE or verapamil before the addition of GE (100 µg/mL). The accumulation of ginsenosides lasted for 2 h, and the intracellular concentrations of ginsenosides were measured by LC/MS. All experiments were conducted in triplicate.

[6] = LLC-PK1, pH 7.4, L-MDR1 cells, control (absence of verapamil), GE 100 µg/mL, 2 h
[7] = LLC-PK1, pH 7.4, with verapamil 10 µM, L-MDR1 cells, presence of 10 µM verapamil
[8] = LLC-PK1, pH 7.4, L-MDR1 cells, presence of 10 µM verapamil

SMILES: CC(C)=CCC[C@](C)(O[C@@H]1O[C@H](CO)[C@@H](O)[C@H](O)[C@H]1O)[C@H]1CC[C@]2(C)[C@@H]1[C@H](O)C[C@@H]1[C@@]3(C)CC[C@H](O)C(C)(C)[C@@H]3[C@@H](O)C[C@]12C [F1, ginsenoside F1]
- Effect of verapamil on transport (efflux ratio) [1]: No transport difference
- Effect of verapamil on efflux ratio / Papp [2]: almost not affected by verapamil
- Effect of SLE on efflux ratio / transport [2]: almost not be affected by SLE
- P-gp substrate classification [2]: almost could not be transported by P-gp
- efflux ratio at 2 h, 100 µg/mL (P-gp (MDR1); [6]): < 2
- efflux ratio at 2 h, 100 µg/mL (P-gp (MDR1); [7]): 1.99
- Effect of verapamil on intracellular accumulation [3]: almost not affected by verapamil

SMILES: CC(C)=CCC[C@](C)(O[C@@H]1O[C@H](CO)[C@@H](O)[C@H](O)[C@H]1O)[C@H]1CC[C@]2(C)[C@@H]1[C@H](O)C[C@@H]1[C@@]3(C)CC[C@H](O)C(C)(C)[C@@H]3[C@@H](O[C@@H]3O[C@H](CO)[C@@H](O)[C@H](O)[C@H]3O[C@@H]3O[C@@H](C)[C@H](O)[C@@H](O)[C@H]3O)C[C@]12C [Re, ginsenoside Re]
- Effect of verapamil on transport (efflux ratio) [1]: No transport difference
- Effect of verapamil on efflux ratio / Papp [2]: almost not affected by verapamil
- Effect of SLE on efflux ratio / transport [2]: almost not be affected by SLE
- P-gp substrate classification [2]: almost could not be transported by P-gp
- efflux ratio at 2 h, 100 µg/mL (P-gp (MDR1); [6]): < 2
- efflux ratio at 2 h, 100 µg/mL (P-gp (MDR1); [7]): 2.36
- Effect of verapamil on intracellular accumulation [3]: almost not affected by verapamil

SMILES: CC(C)=CCC[C@](C)(O[C@@H]1O[C@H](CO)[C@@H](O)[C@H](O)[C@H]1O)[C@H]1CC[C@]2(C)[C@@H]1[C@H](O)C[C@@H]1[C@@]3(C)CC[C@H](O)C(C)(C)[C@@H]3[C@@H](O[C@@H]3O[C@H](CO)[C@@H](O)[C@H](O)[C@H]3O)C[C@]12C [Rg1, ginsenoside Rg1]
- Effect of verapamil on transport (efflux ratio) [1]: No transport difference
- Effect of verapamil on efflux ratio / Papp [2]: almost not affected by verapamil
- Effect of SLE on efflux ratio / transport [2]: almost not be affected by SLE
- P-gp substrate classification [2]: almost could not be transported by P-gp
- efflux ratio at 2 h, 100 µg/mL (P-gp (MDR1); [6]): < 2
- efflux ratio at 2 h, 100 µg/mL (P-gp (MDR1); [7]): 1.16
- Effect of verapamil on intracellular accumulation [3]: almost not affected by verapamil

SMILES: CC(C)=CCC[C@](C)(O)[C@H]1CC[C@]2(C)[C@@H]1[C@H](O)C[C@@H]1[C@@]3(C)CC[C@H](O)C(C)(C)[C@@H]3[C@@H](O[C@@H]3O[C@H](CO)[C@@H](O)[C@H](O)[C@H]3O[C@@H]3O[C@@H](C)[C@H](O)[C@@H](O)[C@H]3O)C[C@]12C [Rg2, ginsenoside Rg2]
- Increase of intracellular concentration by SLE ([4]; 2.0 µg/mL SLE): 1.7 fold
- Increase of intracellular concentration by SLE ([4]; 10.0 µg/mL SLE): 2.1 fold
- Effect of verapamil on transport (efflux ratio) [1]: No transport difference
- Effect of SLE on transport (AP→BL, BL→AP) [1]: No transport difference
- efflux ratio at 2 h, 100 µg/mL [5]: 4.26
- Effect of verapamil on efflux ratio / Papp [2]: significantly decrease of ER
- Effect of SLE on efflux ratio / transport [2]: significantly decreased
- P-gp substrate classification [2]: moderate P-gp substrates
- efflux ratio at 2 h, 100 µg/mL (P-gp (MDR1); [6]): > 3.5
- efflux ratio at 2 h (P-gp (MDR1); [8]): 1.52
- Effect of verapamil on intracellular accumulation [3]: no significant difference
- Effect of SLE on intracellular accumulation [3]: no significant difference

SMILES: CC(C)=CCC[C@](C)(O)[C@H]1CC[C@]2(C)[C@@H]1[C@H](O)C[C@@H]1[C@@]3(C)CC[C@H](O[C@@H]4O[C@H](CO)[C@@H](O)[C@H](O)[C@H]4O[C@@H]4O[C@H](CO)[C@@H](O)[C@H](O)[C@H]4O)C(C)(C)[C@@H]3CC[C@]12C [Rg3, ginsenoside Rg3]
- Increase of intracellular concentration by SLE ([4]; 2.0 µg/mL SLE): 2.5 fold
- Increase of intracellular concentration by SLE ([4]; 10.0 µg/mL SLE): 2.9 fold
- Effect of verapamil on transport (efflux ratio) [1]: No transport difference
- Effect of SLE on transport (AP→BL, BL→AP) [1]: No transport difference
- Effect of verapamil on efflux ratio (Caco-2 cell monolayer; Caco-2 cells, 10 µM verapamil): decreased significantly
- Effect of SLE on BL-AP transport / efflux ratio (Caco-2 cell monolayer; Caco-2 monolayer, SLE 2.0 and 10.0 µg/mL): concentration dependently decrease
- Effect of verapamil on efflux ratio / Papp [2]: significantly decrease of ER
- Effect of SLE on efflux ratio / transport [2]: significantly decreased
- P-gp substrate classification [2]: moderate P-gp substrates
- Effect of verapamil on intracellular accumulation [3]: no significant difference
- Effect of SLE on intracellular accumulation [3]: no significant difference
- Effect of verapamil on uptake (Caco-2 cells; 10 µM verapamil): significantly enhanced
- Effect of SLE on intracellular concentration (Caco-2 cells; SLE 2.0 and 10.0 µg/mL, P<0.01): concentration dependently increase

SMILES: CC(C)=CCC[C@](C)(O)[C@H]1CC[C@]2(C)[C@@H]1[C@H](O)C[C@@H]1[C@@]3(C)CC[C@H](O)C(C)(C)[C@@H]3[C@@H](O[C@@H]3O[C@H](CO)[C@@H](O)[C@H](O)[C@H]3O)C[C@]12C [Rh1, ginsenoside Rh1]
- Effect of verapamil on transport (efflux ratio) [1]: No transport difference
- Effect of verapamil on efflux ratio / Papp [2]: almost not affected by verapamil
- Effect of SLE on efflux ratio / transport [2]: almost not be affected by SLE
- P-gp substrate classification [2]: almost could not be transported by P-gp
- efflux ratio at 2 h, 100 µg/mL (P-gp (MDR1); [6]): < 2
- efflux ratio at 2 h (P-gp (MDR1); [8]): 1.6
- Effect of verapamil on intracellular accumulation [3]: almost not affected by verapamil
